Experimental data reported in PMC7934687 (Vaccine, 2021).
Where two headings read alike, the source gives them in different places.

Assays:
Assay type in all cases: binding
[1] = target: HLA-DRB1*01:01 (Homo sapiens, UniProt P01903+P01911, A100R/D57E/F55L/F60I/F76Y/I96L/L162R/M171V/P40L/Q125E/R42F/V115G/Y59C); details: reference peptide, short 15 amino acid form
[2] = target: HLA-DRB1*15:01 (Homo sapiens, UniProt P01903+P01911); details: reference peptide, short 15 amino acid form
[3] = target: HLA-A*02:01 (Homo sapiens, UniProt P04439, D140Y/D185E/D98H/E176V/E277Q/G131W/G231S/I119V/I121R/I166T/I218V/L300P/L318F/N151K/N90K/P208A/P217A/Q86G/Q94H/R138H/R169H/T345S)

Sequence: PVSKMRMATPLLMQA [CLIP]
- interaction with recombinant HLA-DRB1*01:01 [1]: interacts strongly
- interaction with recombinant HLA-DRB1*15:01 [2]: interacts strongly

Sequence: ISDEFSSNV
- Practical Exchange rate ([3]; […], exiting peptide removed): 93.5%

Sequence: YLYALVYFL
- Practical Exchange rate ([3]; […], exiting peptide removed): 85%

Sequence: SVLLFLAFV
- Practical Exchange rate [3]: 57.5%
